This note sets out measurements from the RepoRT retention time repository.

Molecules are shown by their SMILES.

This series can be described thus: Waters XBridge C18, 0.2 mL/min; A: water + 0.1% formic acid; B: methanol + 0.1% formic acid; gradient (min/%B) 0/10 4/50 17/95 25/95. The following applies: stereoisomer not certain.
On to `CN=C(NC#N)NCCSCc1nc[nH]c1C`, for which the LC retention time is 3.6 min.

For the compound `CN(C(=O)COc1nc2ccccc2s1)c1ccccc1`, the LC retention time amounted to 13 min.

In the case of `COc1cccc(C2(O)CCCCC2CN(C)C)c1` (stereo not drawn), the LC retention time is 5.7 min.

With `CC(C)NCC(O)COc1ccc(CC(=O)O)cc1` (stereo not drawn), the LC retention time was found to be 4.7 min.

Turning to `CC(C)(C(=O)O)c1ccc(C(O)CCCN2CCC(C(O)(c3ccccc3)c3ccccc3)CC2)cc1` (stereo not drawn), the LC retention time is 8.6 min.

Turning to `CC(C)NCC(O)COc1cccc2ccccc12` (stereo not drawn), the LC retention time worked out at 7.2 min.

Turning to `COc1ccc(C(CN(C)C)C2(O)CCCCC2)cc1` (stereo not drawn), the LC retention time is 6.9 min.

In the case of `COc1ccc(CN2CCNCC2)c(OC)c1OC`, the LC retention time is 3.5 min.

As to `CC(C)OP(=O)(OC(C)C)SCc1ccccc1`, the LC retention time is 14 min.

With `Cc1cc(=O)n(-c2ccccc2)n1C`, the LC retention time worked out at 5.9 min.

For the compound `NC(=O)N1c2ccccc2C=Cc2ccccc21`, the LC retention time was found to be 9.3 min.

On to `COC(=O)Nc1nc2ccccc2[nH]1`, for which the LC retention time worked out at 4.7 min.

Turning to `NC(=O)N1c2ccccc2CC(=O)c2ccccc21`, the LC retention time was 8 min.

For the compound `CN(C)CCOC(c1ccccc1)c1ccccc1`, the LC retention time is 7.4 min.

In the case of `CCN(CC)C(=O)c1cccc(C)c1`, the LC retention time worked out at 10 min.

Regarding `CC(C)OC(=O)C(C(=O)OC(C)C)=C1SCCS1`, the LC retention time turned out to be 13 min.

For the compound `CCC(C)OC(=O)N1CCCCC1CCO` (stereo not drawn), the LC retention time was found to be 9.9 min.

Turning to `CN(C)C(=N)N=C(N)N`, the LC retention time stood at 1.2 min.

Take `CC(C)NCC(O)COc1ccc(COCCOC(C)C)cc1` (stereo not drawn): the LC retention time is 6.7 min.

On to `Cc1cccc(Nc2ccccc2C(=O)O)c1C`, for which the LC retention time is 16 min.

Take `CCCCC(=O)N(Cc1ccc(-c2ccccc2-c2nn[nH]n2)cc1)C(C(=O)O)C(C)C` (stereo not drawn): the LC retention time was 12 min.

As to `Cc1cccc2sc3nncn3c12`, the LC retention time was 7.3 min.

Consider `Cc1cc(C)nc(NS(=O)(=O)c2ccc(N)cc2)n1`, for which the LC retention time is 5.2 min.

Consider `CCN(CC)CC(=O)Nc1c(C)cccc1C`, for which the LC retention time is 5.2 min.

For `CNC(=C[N+](=O)[O-])NCCS(=O)Cc1ccc(CN(C)C)o1` (stereo not drawn), the LC retention time was 1.2 min.

Regarding `COC=C(C(=O)OC)c1ccccc1Oc1cc(Oc2ccccc2C#N)ncn1`, the LC retention time was found to be 11 min.

`CNC(=C[N+](=O)[O-])NCCSCc1ccc(CN(C)C)o1`: the LC retention time came to 5.6 min.

Regarding `CCC1OC(=O)C(C)C(OC2CC(C)(OC)C(O)C(C)O2)C(C)C(OC2OC(C)CC(N(C)C)C2O)C(C)(O)CC(C)C(=NOCOCCOC)C(C)C(O)C1(C)O` (stereo not drawn), the LC retention time came to 10 min.

`COCC(=O)N(c1c(C)cccc1C)C(C)C(=O)OC` (stereo not drawn): the LC retention time stood at 10 min.

As to `CCCCC1=NC2(CCCC2)C(=O)N1Cc1ccc(-c2ccccc2-c2nn[nH]n2)cc1`, the LC retention time turned out to be 11 min.

On to `COc1cc(Cc2cnc(N)nc2N)cc(OC)c1OC`, for which the LC retention time is 4.7 min.

For the compound `CC(C)N1C(=O)c2ccccc2NS1(=O)=O`, the LC retention time amounted to 8.9 min.

As to `CCCC1CC(C(=O)NC(C(C)O)C2OC(SC)C(O)C(O)C2O)N(C)C1` (stereo not drawn), the LC retention time amounted to 4.7 min.

On to `O=P(c1ccccc1)(c1ccccc1)c1ccccc1`, for which the LC retention time was 11 min.

Take `Cc1cc(NS(=O)(=O)c2ccc(N)cc2)no1`: the LC retention time was 5.7 min.

As to `Cc1cccc2n[nH]nc12`, the LC retention time turned out to be 7.2 min.

For the compound `COc1ccc2cc(C(C)C(=O)O)ccc2c1` (stereo not drawn), the LC retention time amounted to 12 min.

Turning to `O=C(O)c1ccc(-c2ccccc2-c2nn[nH]n2)cc1`, the LC retention time is 7.9 min.

Consider `Nc1ccc(S(=O)(=O)Nc2ccccn2)cc1`, for which the LC retention time amounted to 4.4 min.

For the compound `CCN1CCCC1CNC(=O)c1cc(S(=O)(=O)CC)c(N)cc1OC` (stereo not drawn), the LC retention time is 4.6 min.

As for `Nc1ccc(S(=O)(=O)Nc2nccs2)cc1`, the LC retention time came to 4.2 min.

Take `c1ccc2n[nH]nc2c1`: the LC retention time worked out at 5.8 min.

`CC(C)NCC(O)COc1ccc(CC(N)=O)cc1` (stereo not drawn): the LC retention time stood at 3.5 min.
